# Where two headings read alike, the source gives them in different places.
# Experiments:
# K562-CD19 cells [1] = conditions: for elimination of K562-CD19 cells by bridging factor: rapamycin 10 nM or AP21967 100 nM, 5:1
# Method: The transduced T cells were then co-incubated with about a 50:50 mixture of the K562 target cells expressing either CD19 (K562-CD19) or CD20 (K562-CD20) to evaluate antigen-specific cytotoxicity. […] The DARIC antigen binding component includes a CD19 antigen binding scFv domain and a FKBP12 multimerization domain, which was linked to a mCherry fluorescent protein.
# In addition, two distinct T cell populations were mixed, wherein one population was expressing a DARIC antigen binding component and the other population was expressing a DARIC signaling component.
# K562-CD19 target cells [2] = experiment: Titration of bridging factors, DARIC T cell cytotoxicity; conditions: DARIC expressing T cells, 5:1, 50:50 K562-CD19:K562-CD20
# Method: (§1) A broad range of bridging factor (rapamycin and everolimus) concentrations were tested to determine whether a DARIC system can function at clinically relevant concentrations. As in the Example 4, primary human T cells were isolated, activated, and then transduced with lentiviral vectors expressing a DARIC binding component (SEQ ID NOS.:1, 4, 7) and a DARIC signaling component (SEQ ID NOS.:15, 19, 23). The DARIC expressing T cells were then co-incubated with 50:50 mixtures of the K562-CD19 and K562-CD20 target cells to evaluate antigen-specific cytotoxicity. The overall ratio of T cells to K562 cells was 5:1 in all samples.
# K562-CD19 target cells [3] = tested on: K562-CD19 target cells
# Method: as §1
# K562-CD19 cells [4] = experiment: Deactivation of DARIC cytotoxicity using an anti-bridging factor; assay type: cell-based, human
# Method: Deactivation of the DARIC system by the addition of a pharmacological agent that competes for binding to one of the multimerization domains was tested. Primary human T cells expressing either a traditional CD19 targeting CAR or primary human T cells expressing the CD19 targeting DARIC components (SEQ ID NO.:66) were co-incubated with 50:50 mixtures of K562-CD19 and K562-CD20 cells.
compound,measurement,setting,value
"CO[C@H]1[C@@H](O)[C@H](C)C[C@H](C)/C=C/C=C/C=C(\C)[C@@H](c2c[nH]c3c(C)cccc23)C[C@@H]2CC[C@@H](C)[C@@](O)(O2)C(=O)C(=O)N2CCCC[C@H]2C(=O)O[C@H]([C@H](C)C[C@@H]2CC[C@@H](O)[C@H](OC)C2)C[C@H](O)[C@H](C)/C=C(\C)[C@H]1O [AP21967, C-16-(S)-7-methylindolerapamycin]",elimination of K562-CD19 cells by bridging factor,K562-CD19 cells [1]; T cells with CD19 scFv-FKBP12 binding component and FRB (2021-2113) T2098L signaling component,elimination of the CD19 expressing K562 cells
same,elimination of K562-CD19 cells by bridging factor,K562-CD19 cells [1]; T cells with CD19 scFv-FKBP12 binding component and FRB signaling component,no effect on cell survival
CO[C@H]1C[C@@H]2CC[C@@H](C)[C@@](O)(O2)C(=O)C(=O)N2CCCC[C@H]2C(=O)O[C@H]([C@H](C)C[C@@H]2CC[C@@H](O)[C@H](OC)C2)CC(=O)[C@H](C)/C=C(\C)[C@@H](O)[C@@H](OC)C(=O)[C@H](C)C[C@H](C)/C=C/C=C/C=C/1C [rapamycin],cytotoxicity by bridging factor,"K562-CD19 cells [1]; mixed T cell populations, one expressing the binding component, the other the signaling component",cytotoxicity response against K562-CD19 cells
same,cytotoxicity responses over bridging factor concentration,K562-CD19 target cells [2],maintained to sub-nanomolar drug concentrations
CO[C@H]1C[C@@H]2CC[C@@H](C)[C@@](O)(O2)C(=O)C(=O)N2CCCC[C@H]2C(=O)O[C@H]([C@H](C)C[C@@H]2CC[C@@H](OCCO)[C@H](OC)C2)CC(=O)[C@H](C)/C=C(\C)[C@@H](O)[C@@H](OC)C(=O)[C@H](C)C[C@H](C)/C=C/C=C/C=C/1C [everolimus],cytotoxicity responses over bridging factor concentration,K562-CD19 target cells [3],maintained to sub-nanomolar drug concentrations
C=CC[C@@H]1/C=C(\C)C[C@H](C)C[C@H](OC)[C@H]2O[C@@](O)(C(=O)C(=O)N3CCCC[C@H]3C(=O)O[C@H](/C(C)=C/[C@@H]3CC[C@@H](O)[C@H](OC)C3)[C@H](C)[C@@H](O)CC1=O)[C@H](C)C[C@@H]2OC [FK506],reduction in antigen specific cytotoxicity when added,K562-CD19 cells [4]; CD19 targeting CAR T cells,minimal reduction
same,reduction in antigen specific cytotoxicity when added,K562-CD19 cells [4]; CD19 targeting DARIC T cells with rapamycin,marked reduction

# Reference: patent US10428142B2, “Multipartite signaling proteins and uses thereof” (BLUEBIRD BIO, INC., priority 2013, dated 2019)
